According to PubChem BioAssay (NCI):
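Cultured in 96-well plates, cells were exposed to test compound for 48 hours across five concentrations. GI50: concentration for 50% inhibition of growth. TGI: total growth inhibition.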

Tests used:
Assay in all cases: inhibition of tumour cell growth, NCI panel, 48 h
[1] = system: SNB-19 CNS
[2] = system: MALME-3M melanoma
[3] = system: SR leukemia
[4] = system: NCI-H226 lung
[5] = system: OVCAR-8 ovarian
[6] = system: MCF7 breast
[7] = system: A498 renal
[8] = system: HCT-116 colon
[9] = system: UO-31 renal
[10] = system: A549 NSCLC

| Compound | GI50 [1] | TGI [1] | GI50 [2] | TGI [2] | GI50 [3] | TGI [3] | GI50 [4] | TGI [4] | GI50 [5] | TGI [5] | GI50 [6] | TGI [6] | GI50 [7] | TGI [7] | GI50 [8] | TGI [8] | GI50 [9] | TGI [9] | GI50 [10] | TGI [10] |
| --- | --- | --- | --- | --- | --- | --- | --- | --- | --- | --- | --- | --- | --- | --- | --- | --- | --- | --- | --- | --- |
| COC(=O)c1c2c(c(C)[n+]([O-])c1C)C(=O)C(NCc1ccccc1)=CC2=O | 3.25 µM | 11.2 µM | 0.617 µM | 1.88 µM | 3000 nM | 31.4 µM | 2.81 µM | 9.9 µM | 2.32 µM | 8.73 µM | 1.65 µM | 3.73 µM | 4720 nM | 16.1 µM | 2470 nM | 9.48 µM | 2900 nM | 10.1 µM | 2.47 µM | 7.94 µM |
| O=S(O)O.O=S(O)O.[Co].[NH2-].[NH2-].[NH2-].[NH2-] | > 100 µM | > 100 µM | > 100 µM | > 100 µM | > 100000 nM | > 100 µM | > 100 µM | > 100 µM | > 100 µM | > 100 µM | > 100 µM | > 100 µM | > 100000 nM | > 100 µM | > 100000 nM | > 100 µM | > 100000 nM | > 100 µM | > 100 µM | > 100 µM |
| CC1(C)C(=O)/C=C\C(=O)C(C)(C)C2=CC=C(O2)C(C)(C)C(=O)C(Br)C(Br)C(=O)C(C)(C)C2=CC=C1O2 (stereo not given) |  | > 100 µM |  | > 100 µM |  | 5.62 µM |  | > 100 µM |  | 40.1 µM |  | > 100 µM |  | > 100 µM |  | 65.6 µM |  | > 100 µM |  | > 100 µM |
| c1cc(OCCN2CCCC2)ccc1CNc1ccc2nc(CCC3CCCCC3)[nH]c2c1 | 2.91 µM | 10 µM | 1.57 µM | 3.07 µM | 290 nM | 1.03 µM | 1.51 µM | 3.6 µM | 2.69 µM | 10 µM | 1.63 µM | 4.66 µM | 1150 nM | 2.77 µM | 1430 nM | 3.2 µM | 1420 nM | 2.75 µM | 2.47 µM | 7.52 µM |
| CCCCCN(CCCCC)CCC[C@@H](C)[C@H]1CC[C@H]2[C@@H]3[C@H](OCCCN)C[C@@H]4C[C@H](OCCCN)CC[C@]4(C)[C@H]3C[C@H](OCCCN)[C@]12C | 7.9 µM | 24.3 µM | 4.8 µM | 17.7 µM | 2380 nM | 9.28 µM | 5.11 µM | 24.8 µM | 7.39 µM | 22.9 µM | 14.5 µM | 34.7 µM | 10200 nM | 60.7 µM | 2400 nM | 14.7 µM | 14100 nM | 51.7 µM | 5 µM | 21.9 µM |
| COc1cc2c3c(n(CCCN=[N+]=[N-])c(=O)c2cc1OC)-c1ccc(F)cc1C3=O | 4.35 µM | > 100 µM | > 100 µM | > 100 µM | 449 nM | 2.68 µM | 43.2 µM | > 100 µM | 21.2 µM | > 100 µM | 3.78 µM | > 100 µM | 39600 nM | > 100 µM | 4200 nM | > 100 µM | 5140 nM | > 100 µM | 48 µM | > 100 µM |
| O=C(Nc1ccc(I)cc1F)c1cc(Br)ccc1O | 0.41 µM | > 100 µM | 0.379 µM | 2 µM | 564 nM | > 100 µM | 1.28 µM | 4.41 µM | 0.83 µM | > 24.2 µM | 0.78 µM | 7.76 µM | 175 nM | 0.63 µM | 411 nM | 1.96 µM | 346 nM | 2.24 µM | 2.81 µM | > 100 µM |
| CC(C)[C@@]12C[C@@H](OC(=O)C3CO3)[C@@](C)(O1)[C@@H]1CC[C@@H](C)[C@H]1[C@@H]2OC(=O)/C=C/c1ccccc1 (stereo not given in full) | 16.6 µM | 33.4 µM | 13 µM | 27.4 µM | 29800 nM | > 100 µM | 13.5 µM | 29.3 µM | 5.33 µM | 60.3 µM | 19.8 µM | 83.3 µM | 2050 nM | 4.91 µM | 23800 nM | > 100 µM | 1760 nM | 5.57 µM | 20.4 µM | 49.5 µM |
| CCOC(=O)c1c(NN2CCN(CC(F)(F)F)CC2)oc(/C=C2\C=Nc3ncccc32)c1O | 20.7 µM | > 100 µM | 13 µM | 29.4 µM | 689 nM | 3.81 µM | 1.73 µM | 27 µM | 4.14 µM | 20.6 µM | 6.37 µM | 30.5 µM | 3620 nM | 9.62 µM | 2090 nM | 17.7 µM | 5110 nM | 28.9 µM | 5.2 µM | 49.1 µM |
| COc1ccc(C2c3ccc4ccccc4c3Oc3ncn(CCCn4ccnc4)c(=N)c32)cc1OC (stereo not given) | 11.2 µM | 26.7 µM | 2.12 µM | 3.89 µM | 1570 nM | 4.15 µM | 9.16 µM | 27.1 µM | 3.16 µM | 11.6 µM | 3.11 µM | 12.3 µM | 1500 nM | 4.59 µM | 3020 nM | 11 µM | 3750 nM | 16.1 µM | 3.75 µM | 13.8 µM |
| CCn1nc(C2CCN(C(=O)CCO)CC2)nc1-c1cnc(N)c(-c2nnc(C(C)(C)C)o2)n1 | > 100 µM | > 100 µM | 3.77 µM | > 100 µM | 15500 nM | > 88.4 µM | 25.8 µM | > 100 µM | 38.2 µM | > 100 µM | 0.375 µM | > 100 µM | 617 nM | 5.12 µM | 18800 nM | 58.7 µM | 966 nM | 51.7 µM | 2.26 µM | > 100 µM |
| CCOc1ccccc1/C=N\N=C(N/N=C/c1ccccc1OCC)N/N=C/c1ccccc1OCC | 2.2 µM | > 100 µM | 5.69 µM | > 100 µM | 3230 nM | > 100 µM | 2.74 µM | > 100 µM | 3.01 µM | > 100 µM | 0.715 µM | > 100 µM | 2170 nM | 8.45 µM | 763 nM | > 100 µM | 1730 nM | > 100 µM | 2.65 µM | > 100 µM |
